# Test results as given in publication PMC4660977 (Molecular pharmaceutics, 2015).
# Tests used:
# GLP-1R = GLP-1R (Homo sapiens, UniProt P43220); assay: GLP-1R agonism, AKAR3 FRET reporter assay in HEK-GLP-1R cells; format: cell-based; conditions: undigested
# meprin β = biological target: T1, meprin β (Homo sapiens, UniProt Q16820); assay: Meprin β digestion, remaining function at GLP-1R; format: in vitro ADME; conditions: meprin β concentrations greater than 3 µg/mL; 30 min, 100 nM; AKAR3 FRET
# T1 sequence (Q16820 62-701): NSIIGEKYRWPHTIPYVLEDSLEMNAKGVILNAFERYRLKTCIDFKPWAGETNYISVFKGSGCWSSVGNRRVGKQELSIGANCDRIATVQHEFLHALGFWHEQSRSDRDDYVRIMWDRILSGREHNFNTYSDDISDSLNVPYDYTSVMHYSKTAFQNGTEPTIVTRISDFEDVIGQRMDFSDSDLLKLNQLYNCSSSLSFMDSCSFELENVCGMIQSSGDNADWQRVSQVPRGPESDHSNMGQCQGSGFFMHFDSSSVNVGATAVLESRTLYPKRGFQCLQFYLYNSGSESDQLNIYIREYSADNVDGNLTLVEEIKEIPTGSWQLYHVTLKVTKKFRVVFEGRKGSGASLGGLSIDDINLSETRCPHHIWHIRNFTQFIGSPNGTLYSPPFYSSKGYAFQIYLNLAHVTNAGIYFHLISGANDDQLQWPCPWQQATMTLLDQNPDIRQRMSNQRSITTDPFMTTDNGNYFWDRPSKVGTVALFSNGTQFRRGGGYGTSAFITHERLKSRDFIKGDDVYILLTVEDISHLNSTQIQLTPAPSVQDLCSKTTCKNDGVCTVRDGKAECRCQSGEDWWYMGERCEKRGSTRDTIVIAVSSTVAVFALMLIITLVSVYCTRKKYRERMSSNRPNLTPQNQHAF
# [1] = biological target: intrinsic factor (IF) (human) (UniProt P27352); assay: radioligand binding
# intrinsic factor (IF) (human), sequence (P27352 19-417): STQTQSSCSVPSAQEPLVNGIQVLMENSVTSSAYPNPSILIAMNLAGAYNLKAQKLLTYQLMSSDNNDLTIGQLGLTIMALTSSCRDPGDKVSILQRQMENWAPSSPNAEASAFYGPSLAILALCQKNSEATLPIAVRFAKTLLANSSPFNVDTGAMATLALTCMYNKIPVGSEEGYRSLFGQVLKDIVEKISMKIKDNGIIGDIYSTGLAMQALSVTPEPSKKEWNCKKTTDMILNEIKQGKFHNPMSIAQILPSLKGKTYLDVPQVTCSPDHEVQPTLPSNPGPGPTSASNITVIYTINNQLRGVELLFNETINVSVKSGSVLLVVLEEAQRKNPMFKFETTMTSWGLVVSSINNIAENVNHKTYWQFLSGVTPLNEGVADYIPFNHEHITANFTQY
# [2] = biological target: glucagon-like peptide-1 receptor (GLP-1R) (UniProt P43220)
# glucagon-like peptide-1 receptor (GLP-1R), sequence (P43220 24-463): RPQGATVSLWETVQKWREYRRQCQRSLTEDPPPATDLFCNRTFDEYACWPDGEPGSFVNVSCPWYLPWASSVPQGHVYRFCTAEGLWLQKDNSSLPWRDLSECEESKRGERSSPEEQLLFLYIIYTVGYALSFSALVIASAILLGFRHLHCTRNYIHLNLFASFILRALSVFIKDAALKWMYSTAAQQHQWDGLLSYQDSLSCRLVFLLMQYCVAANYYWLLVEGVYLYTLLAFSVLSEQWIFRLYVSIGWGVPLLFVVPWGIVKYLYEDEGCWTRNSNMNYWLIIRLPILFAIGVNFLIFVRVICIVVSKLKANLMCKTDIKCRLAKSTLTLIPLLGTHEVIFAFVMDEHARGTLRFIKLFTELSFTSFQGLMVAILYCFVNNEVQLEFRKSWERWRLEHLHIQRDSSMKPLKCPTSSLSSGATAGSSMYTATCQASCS
# GLP-1R, sequence (P43220 24-463): as above
substance,measurement,setting,value
(AzidoK12)-Ex-4 [Compound 1],% change in FRET at 100 nM,GLP-1R,−12 ± 0.01%
same,function after meprin β digestion,meprin β,No function
B12-Ex-4 conjugate (4) (from UniProt P26349 48-87) (peptide),IF binding (constant not named),[1],6.8 nM
IF-B12-Ex-4 complex (IF-4) (from UniProt P27352 19-417),% change in FRET at 100 nM (AKAR3 in HEK-GLP-1R cells),[2],-12%
